Measured values reported in BindingDB's records for PubMed 35114538 (Institute For Pharmaceutical Research Saarland (Hips), 2022).
Where a SMILES comes first, the peptide text is derived from it. Bridges are numbered along the chain shown (N, C = ends). Triazole bridges read from a SMILES are 1,4-linked. [ ]: non-standard residue; d: D form. Ala(indol-2-yl) = N[C@@H](Cc1cc2ccccc2[nH]1)C(=O)O; Dap(N3) = [N-]=[N+]=NC[C@H](N)C(=O)O; Aha = [N-]=[N+]=NCC[C@H](N)C(=O)O; Pra = C#CC[C@H](N)C(=O)O

biological target: Carbon storage regulator homolog RsmA (Pseudomonas aeruginosa); assay: Binding affinity towards Pseudomonas aeruginosa RsmA measured by fluorescence polarization assay

SMILES | IC50 [µM]
CC(=O)N[C@H](C(=O)N[C@H]1Cc2cn(nn2)CC[C@@H](C(=O)N[C@@H](Cc2c[nH]c3ccccc23)C(N)=O)NC(=O)[C@H](CC(C)C)NC(=O)[C@H](CCC(=O)O)NC(=O)[C@H](CO)NC1=O)C(C)C (Ac-V[Pra]SEL[Aha]W-NH2; triazole 2-6) | 30.2
CC(=O)N[C@H](C(=O)N[C@H]1CSSC[C@@H](C(=O)N[C@@H](Cc2cc3ccccc3[nH]2)C(N)=O)NC(=O)[C@H](CC(C)C)NC(=O)[C@H](CCC(=O)O)NC(=O)[C@H](CO)NC1=O)C(C)C (Ac-VCSELC[Ala(indol-2-yl)]-NH2; disulfide 2-6) | 272
CC(=O)N[C@H](C(=O)N[C@H]1Cc2cn(nn2)C[C@@H](C(=O)N[C@@H](Cc2c[nH]c3ccccc23)C(N)=O)NC(=O)[C@H](CC(C)C)NC(=O)[C@H](CCC(=O)O)NC(=O)[C@H](CO)NC1=O)C(C)C (Ac-V[Pra]SEL[Dap(N3)]W-NH2; triazole 2-6) | 20
CC(=O)N[C@H](C(=O)N[C@H]1Cn2cc(nn2)C[C@@H](C(=O)N[C@@H](Cc2c[nH]c3ccccc23)C(N)=O)NC(=O)[C@H](CC(C)C)NC(=O)[C@H](CCC(=O)O)NC(=O)[C@H](CO)NC1=O)C(C)C (Ac-V[Dap(N3)]SEL[Pra]W-NH2; triazole 2-6) | 22.8
CC(=O)N[C@H](C(=O)N[C@H]1Cc2cnnn2CC[C@@H](C(=O)N[C@@H](Cc2c[nH]c3ccccc23)C(N)=O)NC(=O)[C@H](CC(C)C)NC(=O)[C@H](CCC(=O)O)NC(=O)[C@H](CO)NC1=O)C(C)C | 44.4
CC(=O)N[C@H](C(=O)N[C@H]1CCn2nncc2C[C@@H](C(=O)N[C@@H](Cc2c[nH]c3ccccc23)C(N)=O)NC(=O)[C@H](CC(C)C)NC(=O)[C@H](CCC(=O)O)NC(=O)[C@H](CO)NC1=O)C(C)C | 37
